In ChEMBL document CHEMBL4706623, “GPR52 Antagonist Reduces Huntingtin Levels and Ameliorates Huntington's Disease-Related Phenotypes” (J Med Chem, 2021):
The source made the active and inactive calls. The calls are words filed in the database; no cut-off is given here.

How the values were obtained:
[1] = biological target: G-protein coupled receptor 52 (Mus musculus) (UniProt P0C5J4); experiment: Antagonist activity at GPR52 in neurons from HdhQ7/Q140 mouse assessed as decrease in wild type HTT levels at 0.3 to 3 uM incubated for 48 hrs in presence of 2B7-terbium and 2166-D2 antibodies by western blot analysis; format: tissue-based; conditions: Neuron, filed as antagonist, dose 0.3-3 µM
Chain of G-protein coupled receptor 52 (Mus musculus) (P0C5J4 whole entry): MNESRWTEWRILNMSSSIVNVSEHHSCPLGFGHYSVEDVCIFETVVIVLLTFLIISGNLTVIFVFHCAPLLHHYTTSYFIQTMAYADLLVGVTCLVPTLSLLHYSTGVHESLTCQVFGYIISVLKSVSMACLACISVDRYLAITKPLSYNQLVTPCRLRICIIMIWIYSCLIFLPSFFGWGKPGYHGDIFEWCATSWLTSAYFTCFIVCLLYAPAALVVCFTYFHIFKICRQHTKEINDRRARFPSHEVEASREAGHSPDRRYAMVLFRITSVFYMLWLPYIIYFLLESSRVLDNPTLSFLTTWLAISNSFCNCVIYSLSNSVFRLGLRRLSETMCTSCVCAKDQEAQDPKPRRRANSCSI

[2] = biological target: G-protein coupled receptor 52 (Mus musculus) (UniProt P0C5J4); experiment: Antagonist activity at GPR52 in mouse STHdhQ7/111 cells assessed as decrease in wild type HTT levels at 1 to 10 uM incubated for 48 hrs in presence of 2B7-terbium and 2166-D2 antibodies by western blot analysis; format: cell-based; conditions: filed as antagonist, dose 1-10 µM
[3] = biological target: G-protein coupled receptor 52 (Mus musculus) (UniProt P0C5J4); experiment: In vivo antagonist activity at GPR52 in HdhQ140 knock-in mouse model assessed as reduction in mHTT aggregate levels in striatum in presence of 4C9 antibody labelled with D2 fluorophore at 5 mg/kg, iv QD for 4 weeks by TR-FRET analysis; format: functional, organism-based
[4] = biological target: G-protein coupled receptor 52 (Mus musculus) (UniProt P0C5J4); experiment: In vivo antagonist activity at GPR52 in wild type mouse model assessed as reduction in mHTT aggregate levels in cortex in presence of 4C9 antibody labelled with D2 fluorophore at 5 mg/kg, iv QD for 4 weeks by TR-FRET analysis; format: functional, organism-based
Mus musculus [5] = experiment: Neuroprotective activity in HdhQ140 knock-in mouse model assessed as decrease in staining intensity of microglia in striatum at 0.5 mM, icv QD for 3 weeks by Iba1staining based immunostaining analysis; format: functional, organism-based
[6] = biological target: G-protein coupled receptor 52 (Mus musculus) (UniProt P0C5J4); experiment: In vivo antagonist activity at GPR52 in HdhQ140 knock-in mouse model assessed as reduction in mHTT levels in striatum at 0.5 mM, icv QD for 3 weeks by TR-FRET analysis; format: functional
Neuron = experiment: Neuroprotective activity in neurons from HdhQ7/Q140 mouse assessed as rescue from mHTT-induced neuronal loss by measuring reduction in caspase 3 activity at 3 uM incubated for 48 hrs maintained in absence of growth factor N2 and B27 under starvation condition by green fluorescent dye based assay; format: functional, tissue-based
[7] = biological target: G-protein coupled receptor 52 (Mus musculus) (UniProt P0C5J4); experiment: In vivo antagonist activity at GPR52 in wild type mouse model assessed as reduction in mHTT aggregate levels in striatum in presence of 4C9 antibody labelled with terbium at 5 mg/kg, iv QD for 4 weeks by TR-FRET analysis; format: functional, organism-based
[8] = biological target: G-protein coupled receptor 52 (Mus musculus) (UniProt P0C5J4); experiment: Antagonist activity at GPR52 in neurons from HdhQ7/Q140 mouse assessed as decrease in mHTT levels at 0.1 to 3 uM incubated for 48 hrs in presence of 2B7-terbium and 2166-D2 antibodies by TR-FRET analysis; format: tissue-based; conditions: Neuron, filed as antagonist, dose 0.1-3 µM
[9] = Neurotoxicity in wild type mouse assessed as effect on motor deficiency by measuring crossing time at 5 mg/kg, iv QD for 4 weeks by balance beam test; format: toxicity, organism-based; conditions: in vivo, 672 h
[10] = biological target: G-protein coupled receptor 52 (Mus musculus) (UniProt P0C5J4); experiment: In vivo antagonist activity at GPR52 in HdhQ140 knock-in mouse model assessed as reduction in soluble mHTT levels in cortex at 5 mg/kg, iv QD for 4 weeks by TR-FRET analysis; format: functional, organism-based
[11] = Drug uptake in wild type mouse brain at 5 mg/kg, iv measured 0.5 to 6 hrs; format: ADME, organism-based; conditions: in vivo, time 0.5-6 hrs, read-out: Drug uptake
[12] = biological target: G-protein coupled receptor 52 (Mus musculus) (UniProt P0C5J4); experiment: In vivo antagonist activity at GPR52 in HdhQ140 knock-in mouse model assessed as reduction in mHTT aggregate levels in striatum at 0.5 mM, icv QD for 3 weeks by S380 antibody based immunostaining based analysis; format: functional
[13] = Neurotoxicity in wild type mouse assessed as motor deficiency by measuring latency to fall at 5 mg/kg, iv QD for 4 weeks by rotarod test; format: toxicity, organism-based; conditions: in vivo, 672 h
STHdhQ7/111 = experiment: Decrease in mHTT level in GPR52 knockdown mouse STHdhQ7/111 cells with at 1 to 10 uM incubated for 48 hrs in presence of 2B7-terbium and 2166-D2 antibodies by TR-FRET analysis; format: functional, cell-based; conditions: dose 1-10 µM
[14] = biological target: C-C chemokine receptor type 5 (Homo sapiens) (UniProt P51681); experiment: Antagonist activity at CCR5 (unknown origin) expressed in HEK293 cells assessed as inhibition of […] cAMP accumulation; format: functional, cell-based
Chain of C-C chemokine receptor type 5 (Homo sapiens) (P51681 whole entry, looked up): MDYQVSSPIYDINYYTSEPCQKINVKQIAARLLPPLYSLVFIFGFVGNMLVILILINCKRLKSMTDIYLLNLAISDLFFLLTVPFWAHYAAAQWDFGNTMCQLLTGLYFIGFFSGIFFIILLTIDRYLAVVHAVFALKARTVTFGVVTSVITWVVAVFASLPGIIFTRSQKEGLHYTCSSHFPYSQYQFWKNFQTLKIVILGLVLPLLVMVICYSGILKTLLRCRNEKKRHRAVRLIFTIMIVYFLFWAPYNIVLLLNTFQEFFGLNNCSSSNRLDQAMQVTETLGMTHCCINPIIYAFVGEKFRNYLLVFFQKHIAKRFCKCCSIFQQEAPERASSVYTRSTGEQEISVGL

[15] = biological target: Beta-2 adrenergic receptor (Homo sapiens) (UniProt P07550); experiment: Antagonist activity at beta2 adrenergic receptor (unknown origin) expressed in HEK293 cells assessed as inhibition of isoproterenol-induced cAMP accumulation; format: functional, cell-based
Chain of Beta-2 adrenergic receptor (Homo sapiens) (P07550 whole entry, looked up): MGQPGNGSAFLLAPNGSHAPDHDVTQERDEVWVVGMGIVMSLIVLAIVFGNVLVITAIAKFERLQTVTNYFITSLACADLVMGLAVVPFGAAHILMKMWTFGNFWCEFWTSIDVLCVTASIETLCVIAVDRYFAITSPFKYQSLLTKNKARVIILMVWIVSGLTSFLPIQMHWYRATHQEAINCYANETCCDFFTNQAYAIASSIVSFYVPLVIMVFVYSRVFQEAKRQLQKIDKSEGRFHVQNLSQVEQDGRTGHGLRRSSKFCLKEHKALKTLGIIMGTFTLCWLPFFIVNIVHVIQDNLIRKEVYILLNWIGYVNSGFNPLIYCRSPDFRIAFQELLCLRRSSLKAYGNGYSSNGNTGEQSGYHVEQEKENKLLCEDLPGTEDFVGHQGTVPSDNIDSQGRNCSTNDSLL

Mus musculus [16] = experiment: Neuroprotective activity in HdhQ140 mouse model assessed as latency to fall at 5 mg/kg, iv QD for 4 weeks by rotarod test; format: functional, organism-based
[17] = biological target: G-protein coupled receptor 52 (Mus musculus) (UniProt P0C5J4); experiment: In vivo antagonist activity at GPR52 in HdhQ140 knock-in mouse model assessed as reduction in mHTT aggregate levels in cortex in presence of 4C9 antibody labelled with terbium at 5 mg/kg, iv QD for 4 weeks by TR-FRET analysis; format: functional, organism-based
[18] = biological target: G-protein coupled receptor 52 (Mus musculus) (UniProt P0C5J4); experiment: Antagonist activity at GPR52 in neurons from HdhQ7/Q140 mouse assessed as decrease in mHTT levels at 0.3 to 3 uM incubated for 48 hrs in presence of 2B7-terbium and 2166-D2 antibodies by western blot analysis; conditions: Neuron, filed as antagonist, dose 0.3-3 µM
[19] = biological target: G-protein coupled receptor 52 (Mus musculus) (UniProt P0C5J4); experiment: In vivo antagonist activity at GPR52 in wild type mouse model assessed as reduction in soluble mHTT levels at 5 mg/kg, iv QD for 4 weeks by TR-FRET analysis; format: functional, organism-based

Q: With O=C(/C=C/CCc1ccccc1)c1ccco1 as the molecule, how does the Activity [1] read?
A: Its Activity is “Active”.

Q: And the Activity [2]?
A: Its Activity is “Active”.

Q: And the Activity [3]?
A: Its Activity is “Active”.

Q: And the Activity [4]?
A: The Activity was “inactive”.

Q: What about the Activity (Mus musculus [5]) of the same molecule?
A: The Activity was “Active”.

Q: And the Activity [6]?
A: The Activity was “Active”.

Q: And the Activity (Neuron)?
A: The Activity was “Active”.

Q: And the Activity [7]?
A: The Activity was “inactive”.

Q: What about the Activity [8] of the same molecule?
A: Its Activity is “Active”.

Q: What about the Activity [9] of the same molecule?
A: Its Activity is “Non-Toxic”.

Q: And the Activity [10]?
A: Its Activity is “inactive”.

Q: And the concentration [11]?
A: The concentration was 20 nM.

Q: And the Activity [12]?
A: Its Activity is “Active”.

Q: What about the Activity [13] of the same molecule?
A: Its Activity is “Non-Toxic”.

Q: And the Activity (STHdhQ7/111)?
A: The Activity was “inactive”.

Q: What about the Activity [14] of the same molecule?
A: The Activity was “inactive”.

Q: And the Activity [15]?
A: The Activity was “inactive”.

Q: And the Activity (Mus musculus [16])?
A: Its Activity is “Active”.

Q: What about the Activity [17] of the same molecule?
A: Its Activity is “inactive”.

Q: What about the Activity [18] of the same molecule?
A: Its Activity is “Active”.

Q: And the Activity [19]?
A: The Activity was “inactive”.
